Assay type in all cases: functional
Assay [1] relates to Staphylococcus aureus. The assay can be described thus: Antibacterial activity against methicillin-resistant Staphylococcus aureus by agar dilution method. For orientation: In agar dilution the substance is mixed into plates at graded concentrations.
The subject of assay [2] is Staphylococcus aureus. In words: Antibacterial activity against methicillin-resistant Staphylococcus aureus MF490 by agar dilution method.
Assay [3] has as its system Pseudomonas aeruginosa. In words: Antibacterial activity against Pseudomonas aeruginosa GN315 by agar dilution method.
Assay [4] has as its system Pseudomonas aeruginosa. The assay can be described thus: Antibacterial activity against Pseudomonas aeruginosa N101 by agar dilution method.
Assay [5] deals with Staphylococcus aureus. In words: Antibacterial activity against methicillin-resistant Staphylococcus aureus MSC03571 by agar dilution method.
A further assay deals with Escherichia coli. In words: Antibacterial activity against Escherichia coli NIH JC2 by agar dilution method.
Assay [6] deals with Staphylococcus aureus. In words: Antibacterial activity against Staphylococcus aureus 209P JC1 by agar dilution method.
In assay [7] the test system is Pseudomonas aeruginosa. The assay can be described thus: Antibacterial activity against Pseudomonas aeruginosa PAO1 by agar dilution method.
The mark [8] stands for this setting: Staphylococcus aureus, read-out: MIC.
Where [9] appears, read: Pseudomonas aeruginosa, read-out: MIC.
[10] abbreviates: Escherichia coli, NIH JC2, read-out: MIC.
Where [11] appears, read: Staphylococcus aureus, 209P JC1, read-out: MIC.
Where [12] appears, read: Pseudomonas aeruginosa, PAO1, read-out: MIC.
[13] abbreviates: Staphylococcus aureus, read-out: MIC50.
[14] abbreviates: Staphylococcus aureus, read-out: MIC90.

≈ marks a conversion by molar mass, not a printed value.

Usually MIC50 stands for an inhibitory concentration at the 50% level, which refers to growth in some studies and to a panel of isolates in others. The MIC90 is an inhibitory concentration at the 90% level, which refers to growth in some studies and to a panel of isolates in others. As usually defined, the MIC is the smallest concentration in the dilution series that meets the test's criterion for growth inhibition.

With `NCC[C@H](O)C(=O)N[C@@H]1C[C@H](N)[C@@H](O[C@H]2O[C@H](CN)CC[C@H]2N)C(O)[C@H]1O[C@H]1O[C@H](CO)[C@@H](O)[C@H](N)[C@H]1O` (single isomer, unassigned; form 2) [ARBEKACIN], in the assay with Staphylococcus aureus [1], the MIC50 was 1 µg/mL (≈ 1.81 µM). In the assay with Staphylococcus aureus [1], this molecule gave an MIC90 of 2 µg/mL (≈ 3.62 µM). For the same molecule, the minimum inhibitory concentration (MIC) against Staphylococcus aureus [2] came to 64 µg/mL (≈ 116 µM); in the assay on Pseudomonas aeruginosa [3] it was 16 µg/mL (≈ 29 µM); in the assay with Pseudomonas aeruginosa [4], 0.25 µg/mL (≈ 0.452 µM); against Staphylococcus aureus [5], 16 µg/mL (≈ 29 µM); with Escherichia coli, 1 µg/mL (≈ 1.81 µM); with Staphylococcus aureus [6], 0.06 µg/mL (≈ 0.109 µM). For the same molecule, the minimal inhibitory concentration (MIC) in the assay on Pseudomonas aeruginosa [7] turned out to be 2 µg/mL (≈ 3.62 µM).

With `CN(C)[C@H]1[C@@H](O[C@H]2O[C@H](CO)[C@@H](O)[C@H](N)[C@H]2O)[C@H](NC(=O)[C@@H](O)CCN)C[C@H](N)[C@H]1O[C@H]1O[C@H](CN)CC[C@H]1N`, the MIC with Staphylococcus aureus [2] (setting [8]) is 32 µg/mL (≈ 55.2 µM); with Pseudomonas aeruginosa [3] (setting [9]) it was over 32 µg/mL; with Staphylococcus aureus [5] (setting [8]), over 64 µg/mL; in the assay with Escherichia coli (setting [10]), 16 µg/mL (≈ 27.6 µM); with Staphylococcus aureus [6] (setting [11]), 1 µg/mL (≈ 1.73 µM); in the assay with Pseudomonas aeruginosa [7] (setting [12]), 32 µg/mL (≈ 55.2 µM).

Take `NCC[C@H](O)C(=O)N[C@@H]1C[C@H](N)[C@@H](O[C@H]2O[C@H](CN)CC[C@H]2N)[C@@H](N)[C@H]1O[C@H]1O[C@H](CO)[C@@H](O)[C@H](N)[C@H]1O`: in the assay on Staphylococcus aureus [1] (setting [13]), the MIC50 stood at 0.5 µg/mL (≈ 0.906 µM). In addition, the MIC90 in the assay with Staphylococcus aureus [1] (setting [14]) worked out at 0.5 µg/mL (≈ 0.906 µM). Moreover, the minimal inhibitory concentration (MIC) was 2 µg/mL (≈ 3.63 µM) in the assay with Staphylococcus aureus [2] (setting [8]); 16 µg/mL (≈ 29 µM) with Pseudomonas aeruginosa [3] (setting [9]); 0.5 µg/mL (≈ 0.906 µM) with Pseudomonas aeruginosa [4] (setting [9]); 4 µg/mL (≈ 7.25 µM) in the assay with Staphylococcus aureus [5] (setting [8]); 2 µg/mL (≈ 3.63 µM) with Escherichia coli (setting [10]); 0.13 µg/mL (≈ 0.236 µM) with Staphylococcus aureus [6] (setting [11]). Besides, in the assay with Pseudomonas aeruginosa [7] (setting [12]), the minimal inhibitory concentration (MIC) came out at 2 µg/mL (≈ 3.63 µM).

On to `CN[C@H]1[C@@H](O[C@H]2O[C@H](CO)[C@@H](O)[C@H](N)[C@H]2O)[C@H](NC(=O)[C@@H](O)CCN)C[C@H](N)[C@H]1O[C@H]1O[C@H](CN)CC[C@H]1N`, for which the minimum inhibitory concentration (MIC) was 4 µg/mL (≈ 7.07 µM) with Staphylococcus aureus [2] (setting [8]); 128 µg/mL (≈ 226 µM) with Pseudomonas aeruginosa [3] (setting [9]); 16 µg/mL (≈ 28.3 µM) in the assay with Staphylococcus aureus [5] (setting [8]); 2 µg/mL (≈ 3.54 µM) in the assay with Escherichia coli (setting [10]); 0.25 µg/mL (≈ 0.442 µM) with Staphylococcus aureus [6] (setting [11]); 4 µg/mL (≈ 7.07 µM) with Pseudomonas aeruginosa [7] (setting [12]).

For the molecule `NCC[C@H](O)C(=O)N[C@@H]1C[C@H](N)[C@@H](O[C@H]2O[C@H](CN)CC[C@H]2N)[C@@H](NCc2ccccc2)[C@H]1O[C@H]1O[C@H](CO)[C@@H](O)[C@H](N)[C@H]1O`, the MIC was determined as 8 µg/mL (≈ 12.5 µM) with Staphylococcus aureus [2] (setting [8]); 128 µg/mL (≈ 199 µM) with Pseudomonas aeruginosa [3] (setting [9]); 1 µg/mL (≈ 1.56 µM) with Pseudomonas aeruginosa [4] (setting [9]); 32 µg/mL (≈ 49.9 µM) with Staphylococcus aureus [5] (setting [8]); 4 µg/mL (≈ 6.23 µM) in the assay on Escherichia coli (setting [10]); 0.13 µg/mL (≈ 0.203 µM) with Staphylococcus aureus [6] (setting [11]). In addition, the minimal inhibitory concentration (MIC) in the assay on Pseudomonas aeruginosa [7] (setting [12]) was found to be 32 µg/mL (≈ 49.9 µM).

With `NCCN[C@H]1[C@@H](O[C@H]2O[C@H](CO)[C@@H](O)[C@H](N)[C@H]2O)[C@H](NC(=O)[C@@H](O)CCN)C[C@H](N)[C@H]1O[C@H]1O[C@H](CN)CC[C@H]1N`, the MIC with Staphylococcus aureus [2] (setting [8]) is 2 µg/mL (≈ 3.36 µM); in the assay on Pseudomonas aeruginosa [3] (setting [9]) it was 64 µg/mL (≈ 108 µM); in the assay on Staphylococcus aureus [5] (setting [8]), 4 µg/mL (≈ 6.73 µM); with Escherichia coli (setting [10]), 4 µg/mL (≈ 6.73 µM); in the assay with Staphylococcus aureus [6] (setting [11]), 0.13 µg/mL (≈ 0.219 µM); in the assay on Pseudomonas aeruginosa [7] (setting [12]) it was 2 µg/mL (≈ 3.36 µM).

Take `CN[C@@H]1[C@@H](O)[C@@H](O[C@@H]2[C@H](O)[C@H](O[C@H]3O[C@H](CN)CC[C@H]3N)[C@@H](N)C[C@H]2NC(=O)[C@@H](O)CCN)O[C@H](CO)[C@H]1O`: the MIC in the assay with Staphylococcus aureus [2] (setting [8]) was 4 µg/mL (≈ 7.06 µM); in the assay with Pseudomonas aeruginosa [3] (setting [9]) it was 32 µg/mL (≈ 56.5 µM); in the assay with Staphylococcus aureus [5] (setting [8]) it was 16 µg/mL (≈ 28.2 µM); in the assay on Escherichia coli (setting [10]), 2 µg/mL (≈ 3.53 µM); in the assay on Staphylococcus aureus [6] (setting [11]), 0.13 µg/mL (≈ 0.229 µM); in the assay on Pseudomonas aeruginosa [7] (setting [12]), 2 µg/mL (≈ 3.53 µM).

As for `NCC[C@H](O)C(=O)N[C@@H]1C[C@H](N)[C@@H](O[C@H]2O[C@H](CN)CC[C@H]2N)[C@@H](Cl)[C@H]1O[C@H]1O[C@H](CO)[C@@H](O)[C@H](N)[C@H]1O`, the minimum inhibitory concentration (MIC) with Staphylococcus aureus [2] (setting [8]) worked out at 3.13 µg/mL (≈ 5.48 µM); with Pseudomonas aeruginosa [3] (setting [9]) it was 50 µg/mL (≈ 87.6 µM); in the assay with Pseudomonas aeruginosa [4] (setting [9]), 0.5 µg/mL (≈ 0.876 µM); with Staphylococcus aureus [5] (setting [8]), 6.25 µg/mL (≈ 10.9 µM); in the assay on Escherichia coli (setting [10]), 1.56 µg/mL (≈ 2.73 µM); with Staphylococcus aureus [6] (setting [11]), 0.1 µg/mL (≈ 0.175 µM). In addition, the MIC in the assay on Pseudomonas aeruginosa [7] (setting [12]) came out at 2 µg/mL (≈ 3.5 µM).

Regarding `NCC[C@H](O)C(=O)N[C@@H]1C[C@H](N)[C@@H](O[C@H]2O[C@H](CN)CC[C@H]2N)C(O)[C@H]1O[C@H]1O[C@H](CO)[C@@H](O)[C@H](N)[C@H]1O` (single isomer, unassigned; form 1) [ARBEKACIN], in the assay on Staphylococcus aureus [1] (setting [13]), the MIC50 was determined as 0.5 µg/mL (≈ 0.905 µM). The MIC90 with Staphylococcus aureus [1] (setting [14]) was 1 µg/mL (≈ 1.81 µM). Besides, the MIC with Staphylococcus aureus [2] was determined as 2 µg/mL (≈ 3.62 µM); in the assay with Pseudomonas aeruginosa [3] (setting [9]) it was 8 µg/mL (≈ 14.5 µM); with Pseudomonas aeruginosa [4] (setting [9]), 0.25 µg/mL (≈ 0.452 µM); against Staphylococcus aureus [5], 2 µg/mL (≈ 3.62 µM); in the assay on Escherichia coli (setting [10]), 1 µg/mL (≈ 1.81 µM); in the assay on Staphylococcus aureus [6] (setting [11]), 0.06 µg/mL (≈ 0.109 µM). The minimum inhibitory concentration (MIC) in the assay on Pseudomonas aeruginosa [7] (setting [12]) stood at 2 µg/mL (≈ 3.62 µM).

These data come from ChEMBL document CHEMBL1148888, “Synthesis and antibacterial activity of 5-deoxy-5-episubstituted arbekacin derivatives” (2007).
